Reference: patent US4810635A, “Specific binding assays employing label analog to reduce sample interferences” (Miles Inc., priority 1986, dated 1989)

What was measured:
[1] = system: riboflavin-binding monoclonal antibody (IgGλ monoclonal anti-flavin antibody) in the serum of a patient with multiple myeloma; conditions: cited from earlier work; for binding to the antibody relative to riboflavin: competitive-binding studies with flavin analogs and [14C]-labeled riboflavin
apoglucose oxidase = apoglucose oxidase (Aspergillus niger, UniProt P13006); experiment: hCG ARIS assay: recombination of hCG-FAD conjugate with apoglucose oxidase, with or without FMN; assay type: biochemical; conditions: 10 μM FMN, 5 nM hCG-FAD conjugate, no serum
Procedure: In order to study the effect of flavin analogs in low level protein ARIS assays, a series of experiments were performed. In all cases the following manual assay protocol was employed. FAD-conjugate was incubated in 2.0 mL of assay mixture containing 10 mM DHSA, 0.1M glucose, 25 μg/mL horseradish peroxidase, 0.1% bovine serum albumin (BSA) in 0.1 M sodium phosphate at pH 7.0 with or without 5% serum and/or 10 μM FMN. After 30 minutes at 37° C., 100 μL of apoglucose oxidase/antiglucose oxidase (3 μM apoenzyme) in 50% glycerol and 4 μM 4-aminoantipyrene was added to initiate the reaction. Following a 30 minute assay incubation step at 37° C. the absorbance was measured at 520 nm.
Two controls were performed during this experiment: (1) conjugate, no serum, no FMN (maximum activity) and (2) conjugate, no serum, plus FMN (assess FMN effect on maximum activity).

Sequence of apoglucose oxidase (P13006 23-605 limits assumed): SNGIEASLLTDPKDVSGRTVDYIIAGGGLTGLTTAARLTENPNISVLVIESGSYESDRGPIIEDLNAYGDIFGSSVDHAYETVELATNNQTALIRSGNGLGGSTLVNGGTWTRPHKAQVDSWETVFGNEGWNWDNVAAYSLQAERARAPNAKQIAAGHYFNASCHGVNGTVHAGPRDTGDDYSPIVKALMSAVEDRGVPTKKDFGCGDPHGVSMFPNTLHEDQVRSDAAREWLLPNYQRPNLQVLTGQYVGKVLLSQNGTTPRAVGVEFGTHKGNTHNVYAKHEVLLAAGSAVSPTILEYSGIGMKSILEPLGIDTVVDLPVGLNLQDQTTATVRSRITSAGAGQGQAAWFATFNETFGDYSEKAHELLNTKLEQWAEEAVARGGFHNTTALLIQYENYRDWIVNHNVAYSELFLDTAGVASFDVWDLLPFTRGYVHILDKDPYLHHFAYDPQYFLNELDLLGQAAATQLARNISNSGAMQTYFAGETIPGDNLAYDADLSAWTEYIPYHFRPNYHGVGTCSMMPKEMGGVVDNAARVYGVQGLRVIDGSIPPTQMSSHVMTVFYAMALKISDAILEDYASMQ

| Compound | binding to the antibody relative to riboflavin [1] | inhibition at 10 µM (apoglucose oxidase; read-out: decrease of the maximum activity of the conjugate) | activity at 10 µM (apoglucose oxidase; relative to conjugate without FMN (maximum activity)) | Kd ([1]; high affinity (reversible) flavin-binding site) |
| --- | --- | --- | --- | --- |
| Cc1cc2nc3c(=O)[nH]c(=O)nc-3n(C[C@H](O)[C@H](O)[C@H](O)COP(=O)(O)OP(=O)(O)OC[C@H]3O[C@@H](n4cnc5c(N)ncnc54)[C@H](O)[C@@H]3O)c2cc1C [FAD, flavin adenine dinucleotide] | bound strongly to the antibody but not as tightly as FMN or riboflavin |  |  |  |
| Cc1cc2nc3c(=O)[nH]c(=O)nc-3n(C[C@H](O)[C@H](O)[C@H](O)COP(=O)(O)O)c2cc1C [FMN, flavin mononucleotide] | bound equally well to this antibody as riboflavin | ~9% | 91% |  |
| Cc1cc2nc3c(=O)[nH]c(=O)nc-3n(C[C@H](O)[C@H](O)[C@H](O)CO)c2cc1C [riboflavin] |  |  |  | 0.6 nM |
